Experimental data reported in PMC8314276, “A Commercial Extract of Cyanotis arachnoidea Roots as a Source of Unusual Ecdysteroid Derivatives with Insect Hormone Receptor Binding Activity” (Journal of Natural Products, 2021).
Values joined by “and” are separate entries in the source; they are usually repeats but may differ in a detail not shown here. Identical values can stand only once. Like-named read-outs stand apart in the source and are kept apart here.

What was measured:
[1] = molecular target: T1, insect ecdysteroid receptor (EcR) (Spodoptera frugiperda, UniProt Q8MWR2); experiment: EcR binding assay ([3H]PonA displacement in Sf-9 cells); details: for IC50: inhibition of [3H]PonA binding; for inhibition at 25 µM: read-out: inh% at 25 μM; for EcR binding activity in words: [3H]PonA binding; for EcR binding potency/affinity relative to 20E: fold higher than 20E
T1 construct: To an Sf-9 cell suspension (400 μL; (2.0–3.0) × 10^6 cells/mL) in a disposable culture tube; endogenous in cells; host or cells: Sf-9 cells
T1 sequence (Q8MWR2 1-403): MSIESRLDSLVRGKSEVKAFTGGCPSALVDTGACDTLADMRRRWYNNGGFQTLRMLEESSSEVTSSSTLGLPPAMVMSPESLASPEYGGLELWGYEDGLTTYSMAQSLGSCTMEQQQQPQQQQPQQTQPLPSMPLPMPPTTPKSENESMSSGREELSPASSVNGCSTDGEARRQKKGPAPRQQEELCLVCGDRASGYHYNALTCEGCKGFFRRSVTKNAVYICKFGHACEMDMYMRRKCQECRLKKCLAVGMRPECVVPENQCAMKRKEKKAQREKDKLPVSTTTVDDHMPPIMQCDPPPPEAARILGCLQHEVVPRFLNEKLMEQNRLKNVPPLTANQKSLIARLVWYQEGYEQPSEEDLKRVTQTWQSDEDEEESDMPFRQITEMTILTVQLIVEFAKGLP
Method: Tritiated PonA ([^3H]PonA; 3.5 TBq/mmol) was custom synthesized by American Radiolabeled Chemicals, Inc. (St. Louis, MO, USA). A stock solution of [^3H]PonA (30 000 dpm/μL, ∼0.1 μM) was prepared in 70% aqueous EtOH. Cold PonA and 20E were obtained from Enzo Biochem Inc. (New York, NY, USA) and Sigma-Aldrich Co. (St. Louis, MO, USA), respectively. Tebufenozide was obtained from stock samples. All test compounds were dissolved in DMSO. An Sf-9 cell line was cultured in EX-CELL 420 medium (SAFC Biosciences, Inc., Lenexa, KS, USA) supplemented with 10% fetal bovine serum.
The binding assay was performed as described previously with some modifications.[43],[44] To an Sf-9 cell suspension (400 μL; (2.0–3.0) × 10^6 cells/mL) in a disposable culture tube (12 mm × 75 mm) was added a test compound solution (1 μL), followed by a [^3H]PonA solution (2 μL, 60 000 dpm). After incubation at 25 °C for 30 min, the cell suspension was diluted with water (3 mL) and filtered through a glass fiber filter GF/B (25 mm; Whatman plc, Maidstone, UK). The filter was washed with water (2 × 3 mL), dried, and transferred to a glass vial. To the vial were added 3 mL of Insta-Gel Plus (PerkinElmer Inc., Waltham, MA, USA), and the radioactivity was measured with an LSC-8000 counter (Aloka, Tokyo, Japan). DMSO and PonA (final concentration: 2.7 μM) were used to determine the total and nonspecific binding, respectively. The test compounds were first screened at 25 μM, and the compounds with an inhibition rate of ≥50% were subjected to concentration–response experiments. The 50% inhibition concentration for [^3H]PonA binding [IC50 (M)] was determined using probit analysis,[45] and the logarithm of its reciprocal, pIC50, was used as the index of the binding affinity.

EcR = molecular target: T2, EcR (Spodoptera frugiperda, UniProt Q8MWR2); experiment: Reporter gene assay (hsp27 ecdysone response element/firefly luciferase) in Sf-9 cells; assay type: cell-based, insect; details: for agonistic activity in reporter gene assay at 0.1 μM / agonistic activity in reporter gene assay at 1 μM: Sf-9 cells, luciferase reporter; for agonist/antagonist classification: binding assay combined with reporter gene assay
T2 sequence (Q8MWR2 1-403): T1 sequence (Q8MWR2 1-403)
Method: The reporter gene assay was performed in Sf-9 cells according to a previously reported method.[46] Briefly, a reporter plasmid was constructed from pBmbA/hsp27/firefly luciferase (hsp27/Fluc), in which seven repeats of hsp27 ecdysone response element were inserted. This plasmid was a kind gift from Dr. Luc Swevers (Institute of Biosciences & Applications, National Center for Scientific Research “Demokritos”, Athens, Greece). The plasmid was amplified in Escherichia coli and purified using a QIAGEN plasmid midi kit (QIAGEN GmbH, Hilden, Germany). A cell suspension (approximately 2.0 × 10^6 cells/mL; 400 μL) was added to each well of a 24-well plate, and it was incubated for 1 h. Then, 200 μL of a mixture of plasmids and TransFast transfection reagent (Promega; Madison, WI, USA) was added to each well. After incubating for 24 h, 6 μL of a solution of test compound (1% v/v) was added and incubated. After 48 h, the medium in each well was removed with a pipet. Cells were lysed by adding 100 μL/well of Passive Lysis Buffer and incubating for 15 min at 25 °C. The lysate (20 μL) was transferred to a 96-well microplate for the luciferase assay. Chemical luminescence was measured using a 96-microplate GLOMAX luminometer (Promega), according to the manufacturer’s instructions.

[2] = pIC50 (M), ecdysteroid receptor binding affinity, Sf-9 cell suspension, 25 °C, 30 min, probit analysis

SMILES | IC50 [1, 2] [M] | agonistic activity in reporter gene assay at 0.1 μM (EcR) | inhibition at 25 µM [1] [%] | EcR binding activity in words ([1]; Sf-9 cells) | other results
CC(C)CC[C@@H](O)[C@](C)(O)[C@H]1CC[C@@]2(O)C3=CC(=O)[C@@H]4C[C@@H](O)[C@@H](O)C[C@]4(C)[C@H]3[C@H](O)C[C@]12C [Compound 14, ajugasterone C] | 6.46e-07 | agonists | – | – | –
CC(C)(O)CC[C@@H](O)[C@](C)(O)[C@H]1CC[C@@]2(O)C3=CC(=O)[C@@H]4C[C@@H](O)[C@@H](O)C[C@]4(C)[C@@]3(O)CC[C@]12C [Compound 20, 9α,20-dihydroxyecdysone] | > 2.51e-05 | – | 45.7 | – | –
CC(C)(O)CC[C@@H](O)[C@](C)(O)[C@H]1CC[C@H]2C3=CC(=O)[C@@H]4C[C@@H](O)[C@@H](O)C[C@]4(C)C3=CC[C@]12C [Compound 7, 14-Deoxy-25-hydroxydacryhainansterone] | 4.79e-07 | did not show agonistic activity | – | moderate | agonistic activity in reporter gene assay at 1 μM (EcR): agonists
CC(C)CCC(=O)[C@](C)(O)[C@H]1CC[C@@]2(O)C3=CC(=O)[C@@H]4C[C@@H](O)[C@@H](O)C[C@]4(C)C3=CC[C@]12C [Compound 6, 22-Oxodacryhainansterone] | – | did not show agonistic activity | – | moderate | IC50 ([1]; IC50, EcR binding, Sf-9 cells): 3.8e-07 M; agonistic activity in reporter gene assay at 1 μM (EcR): agonists
CC(C)CC[C@@H](O)[C@](C)(O)[C@H]1CC[C@@]2(O)C3=CC(=O)[C@@H]4C[C@@H](O)[C@@H](O)C[C@]4(C)C3=CC[C@]12C [Compound 12, dacryhainansterone] | 2.29e-08 | agonists | – | strong | –
CC(C)(O)CC[C@@H](O)[C@](C)(O)[C@H]1CC[C@@H]2C3=CC(=O)[C@@H]4C[C@@H](O)[C@@H](O)C[C@]4(C)[C@H]3CC[C@@]21C [Compound 10, 14β-14-Deoxy-20-hydroxyecdysone] | > 2.51e-05 | – | 18.2 | – | –
CC(C)(O)CC[C@@H](O)[C@](C)(O)[C@H]1CC[C@H]2C3=CC(=O)[C@H]4C[C@@H](O)[C@@H](O)C[C@]4(C)[C@H]3CC[C@]12C [Compound 9, 5α-14-Deoxy-20-hydroxyecdysone] | > 2.51e-05 | – | 0.93 | very weak activity | –
CC(C)(O)CC[C@@H](O)[C@](C)(O)[C@H]1CC[C@@]2(O)C3=C/C(=N\O)[C@@H]4C[C@@H](O)[C@@H](O)C[C@]4(C)[C@H]3CC[C@]12C [Compound 18, 20-hydroxyecdysone 6(E)-oxime] | ~2.51e-05 | – | 60.1 | – | –
CC(C)CC[C@@H](O)[C@](C)(O)[C@H]1CC[C@@]2(O)C3=CC(=O)[C@@H]4C[C@@H](O)[C@@H](O)C[C@]4(C)[C@H]3CC[C@]12C [PonA, ponasterone A, reference compound] | 8.91e-09 | – | – | – | –
C/C(=N\O)[C@H]1CC[C@@]2(O)C3=CC(=O)[C@@H]4C[C@@H](O)[C@@H](O)C[C@]4(C)[C@H]3CC[C@]12C [Compound 16, poststerone 20(E)-oxime] | > 2.51e-05 | – | 4.3 | – | –
CC(C)(O)CC[C@@H](O)[C@](C)(O)[C@H]1CC[C@@]2(O)C3=CC(=O)[C@H]4C[C@@H](O)[C@@H](O)C[C@]4(C)[C@@]3(O)CC[C@]12C [Compound 21, 5α-9α,20-dihydroxyecdysone] | > 2.51e-05 | – | 27.1 | very weak activity | –
CC(C)CC[C@@H](O)[C@](C)(O)[C@H]1CC[C@H]2C3=CC(=O)[C@@H]4C[C@@H](O)[C@@H](O)C[C@]4(C)C3=CC[C@]12C [Compound 5, 14-Deoxydacryhainansterone] | – | agonists | – | strong | IC50 ([1]; IC50, EcR binding, Sf-9 cells): 4.17e-08 M and 4.2e-08 M; EcR binding potency/affinity relative to 20E [1]: approximately 4 times
CC(C)(O)CC[C@@H](O)[C@](C)(O)[C@H]1CC=C2C3=C(CC[C@@]21C)[C@@]1(C)C[C@H](O)[C@H](O)CC1=C(O)C3=O [Compound 11, calonysterone] | > 2.51e-05 | – | 0 | – | –
CC(C)(O)CC[C@@H](O)[C@](C)(O)[C@H]1CC[C@@]2(O)C3=C/C(=N/O)[C@@H]4C[C@@H](O)[C@@H](O)C[C@]4(C)[C@H]3CC[C@]12C [Compound 17, 20-hydroxyecdysone 6(Z)-oxime] | > 2.51e-05 | – | 4.53 | – | –
CCC1(CC)O[C@H]2C[C@@]3(C)[C@@H](C[C@H]2O1)C(=O)C=C1[C@@H]3CC[C@]2(C)[C@@H]([C@@](C)(O)[C@H](O)CCC(C)(C)O)CC[C@@]12O [Compound 19, 28,28-diethyl-2,3-methylidene-20-hydroxyecdysone] | 3.02e-06 | – | – | – | agonistic activity in reporter gene assay at 1 μM (EcR): did not activate the reporter gene; agonist/antagonist classification (EcR): ecdysteroid antagonists
CC(C)(O)CC[C@@H](O)[C@](C)(O)[C@H]1CC[C@@]2(O)C3=CC(=O)[C@@H]4C[C@@H](O)[C@@H](O)C[C@]4(C)[C@H]3CC[C@]12C [20E, 20-hydroxyecdysone, reference compound] | – | – | – | – | IC50 ([1]; Sf-9 cell suspension, 25 °C, 30 min, probit analysis, read-out: pIC50 (M), ecdysteroid receptor binding affinity (converted)): 1.66e-07 M
CC(C)(O)CC[C@@H](O)[C@](C)(O)[C@H]1CC[C@H]2C3=CC(=O)[C@@H]4C[C@@H](O)[C@@H](O)C[C@]4(C)[C@H]3CC[C@]12C [Compound 8, 14-Deoxy-20-hydroxyecdysone] | 6.92e-08 | agonists | – | – | EcR binding potency/affinity relative to 20E [1]: 2.4 times
CC(C)(O)CC[C@@H](O)[C@](C)(O)[C@H]1CC[C@@H]2C3=C(CC[C@@]21C)[C@@]1(C)C[C@H](O)[C@H](O)CC1=C(O)C3=O [Compound 4, 14β-14,15-Dihydrocalonysterone] | ~2.51e-05 | – | 49.8 | – | –
CC(C)(O)CC[C@@H](O)[C@](C)(O)[C@H]1CC[C@@]2(O)C3=CC(=O)[C@H]4C[C@@H](O)C[C@@H](O)[C@]4(C)[C@H]3CC[C@]12C [Compound 15, 5α-2-deoxyintegristerone A] | > 2.51e-05 | – | 2.42 | very weak activity | –
CC1(C)CC[C@H]([C@](C)(O)[C@H]2CC[C@@]3(O)C4=CC(=O)[C@@H]5C[C@@H](O)[C@@H](O)C[C@]5(C)[C@H]4CC[C@]23C)O1 [Compound 13, shidasterone] | 2.51e-06 | – | – | – | agonistic activity in reporter gene assay at 1 μM (EcR): did not activate the reporter gene; agonist/antagonist classification (EcR): ecdysteroid antagonists
